Earlier results, collected in patent US20210198302A1, “OLIGOSACCHARIDE COMPOSITIONS AND METHODS OF USE THEREOF FOR REDUCING AMMONIA LEVELS” (Kaleido Biosciences, Inc., priority 2018, published 2021).

System: OHE patients
Details: administered in combination with lactulose

Compound: CO[C@H]1/C=C/O[C@@]2(C)Oc3c(C)c(O)c4c(O)c(c5c(nc6cc(C)ccn65)c4c3C2=O)NC(=O)/C(C)=C\C=C\[C@H](C)[C@H](O)[C@@H](C)[C@@H](O)[C@@H](C)[C@H](OC(C)=O)[C@@H]1C [rifaximin]
- reduction of episodes of OHE: approximately 50%
